{"source": "paper PMC10970734", "about": "“Identification of an Intravenous Injectable NK1 Receptor Antagonist for Use in Traumatic Brain Injury” (International Journal of Molecular Sciences, 2024)", "key": {"[1]": {"target": "T1, recombinant human NK2 receptor (Homo sapiens, UniProt P21452)", "T1 sequence (P21452 1-398)": "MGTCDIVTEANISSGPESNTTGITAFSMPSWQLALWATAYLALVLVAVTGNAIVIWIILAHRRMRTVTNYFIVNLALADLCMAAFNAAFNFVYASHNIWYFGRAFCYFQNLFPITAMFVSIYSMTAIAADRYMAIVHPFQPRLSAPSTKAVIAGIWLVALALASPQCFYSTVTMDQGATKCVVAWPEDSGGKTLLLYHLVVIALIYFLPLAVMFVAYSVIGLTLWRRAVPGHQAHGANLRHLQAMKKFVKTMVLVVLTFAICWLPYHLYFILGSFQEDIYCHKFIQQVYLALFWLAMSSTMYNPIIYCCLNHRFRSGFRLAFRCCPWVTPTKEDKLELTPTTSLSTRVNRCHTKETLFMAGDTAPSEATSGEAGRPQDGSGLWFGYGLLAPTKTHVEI", "test": "Radioligand binding, recombinant human NK2 receptor"}, "rodent model of TBI [2]": {"test_system": "rodent model of TBI", "test": "BBB permeability after TBI, Evan's blue extravasation", "format": "in vivo, Sprague Dawley rats", "conditions": "rat TBI", "source_text": "(§1) Injury was induced in halothane-anesthetized (ProVet) male Sprague Dawley rats (400 ± 20 g) using acceleration-induced impact TBI [29, 93]. This model involves impacting a 10 mm diameter, 3 mm thick stainless steel disc fixed centrally to the exposed skull between the lambda and bregma with an accelerating impactor. The impactor was a 450 g brass weight dropped from a height of 2 m. […] All animals were fed and watered ad libitum before the induction of injury. During both surgery and the immediate recovery phase, rat rectal temperature was maintained using a thermostatically controlled heating pad. Immediately after injury, animals were manually ventilated until stable respiration was restored, usually in <5 min. After injury, all wounds were sutured. Blood pressure was monitored, both before and after injury, using a femoral arterial line.\nThe optimal dose of the NK1 receptor antagonist was determined from the level of BBB permeability using EB dye extravasation as the BBB marker [94, 95]. Briefly, EUC-001 was administered intravenously 30 min after TBI at doses ranging between 0.03 and 10 mg/kg in six steps (n = 3 per group). […] The supernatants were measured at 610 nm for absorbance of EB using a spectrophotometer (Cole-Parmer, Vernon Hills, IL, USA). Evans blue is expressed as mg/mg of the brain tissue against a standard curve."}, "rodent model of TBI [3]": {"test_system": "rodent model of TBI", "test": "Motor function after TBI, rotarod test", "format": "in vivo, Sprague Dawley rats", "conditions": "rat TBI, 10 mg/kg 30 min post-injury, 10 days", "source_text": "The maximum duration of the task was 120 s.\nas §1\nMotor and cognitive outcomes in animals (n = 6 per group) were assessed using the rotarod and Barnes maze, respectively, as described in detail elsewhere [64]. The rotarod consists of a motorized rotating assembly of 18 rods (1 mm in diameter) upon which the animals were placed. The rotational speed of the device was increased from 0 to 30 r.p.m. and the duration (in seconds) when the animals either completed the task, fell from the rods, or gripped the rods and spun for two consecutive revolutions rather than walking actively was recorded as the rotarod score. […] After activating the bright lights and aversive auditory stimulus, the latency (in seconds) for the animal to locate and enter the escape tunnel was recorded. All animals were pretrained on both functional outcome tests twice per day over 5 days before injury to establish a normal, uninjured baseline."}, "NK1R": {"target": "NK1R (Homo sapiens, UniProt P25103)", "sequence (P25103 whole entry)": "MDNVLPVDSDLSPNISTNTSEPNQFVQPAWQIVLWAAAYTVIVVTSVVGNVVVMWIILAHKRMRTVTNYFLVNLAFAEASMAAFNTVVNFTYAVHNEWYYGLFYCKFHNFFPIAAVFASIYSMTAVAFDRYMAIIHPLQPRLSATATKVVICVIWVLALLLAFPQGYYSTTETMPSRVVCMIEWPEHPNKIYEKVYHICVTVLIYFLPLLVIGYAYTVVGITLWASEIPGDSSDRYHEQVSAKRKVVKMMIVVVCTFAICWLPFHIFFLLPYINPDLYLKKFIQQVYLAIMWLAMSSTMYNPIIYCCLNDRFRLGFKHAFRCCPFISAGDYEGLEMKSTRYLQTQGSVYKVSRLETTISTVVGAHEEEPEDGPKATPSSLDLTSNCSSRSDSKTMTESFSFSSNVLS", "test": "In vitro functional assay, free Ca2+ concentration in U373MG cells endogenously expressing NK1R", "format": "cell-based", "set-up": "which endogenously express the NK1R; endogenous in cells; host or cells: U373MG human glioblastoma astrocytoma cells (ATCC)", "experimental": "In vitro functional assays were performed by assessing changes in free Ca^2+ ion concentration in human glioblastoma (U373MG) cells, which endogenously express the NK1R. Agonist activity of EUC-001 is expressed as a percentage of the agonist response induced by the selective NK1R agonist [Sar^9, Met(O2)^11]-substance P (100 nM; Figure 2A), whilst antagonist activity is expressed as a percentage change in the response induced by 3 nM [Sar^9, Met(O2)^11]-SP (Figure 2B).\nHuman glioblastoma astrocytoma (U373MG) cells (ATCC) were used for in vitro function studies involving intracellular calcium measurements. […] Intracellular calcium concentrations were determined by using the calcium chelating agent fura-2 (Molecular Probes, Waltham, MA, USA). Aliquots of fura-2-loaded cells were subject to agonist stimulation and fluorescence emission was recorded using an MS-5 spectrophotometer (Perkin Elmer, Shelton, CT, USA). Loading of cells, fluorescence monitoring, calibration procedures, and other experimental details were as previously described.\nFor agonist activity, results are expressed as a percentage of the control agonist response induced by the selective NK1R agonist [Sar^9, Met(O2)^11]-substance P (100 nM) for a range of concentrations of EUC-001. […]"}}, "note": "“Also recorded” adds a separate entry of the source.", "data": [{"smiles": "Cc1ccccc1-c1cc(N2CCN(C)CC2)ncc1C(=O)N(C)Cc1cc(C(F)(F)F)cc(C(F)(F)F)c1", "note": "[EUC-001, N-(3,5-Bis-trifluoromethyl-benzyl)-N-methyl-6-(4-methyl-piperazine-1-yl)-4-o-tolyl-nicotinamide]", "values": [{"measurement": "Ki", "setting": "[1]", "result": 3.4, "unit": "µM"}, {"measurement": "Evan's blue leakage relative to drug vehicle", "setting": "rodent model of TBI [2]; 10 mg/kg 30 min post-injury, tissues 5 h after injury", "result": "significant reduction"}, {"measurement": "IC50, decrease in Evan's blue extravasation", "setting": "rodent model of TBI [2]; bolus iv 30 min after injury, 0.03-10 mg/kg", "result": 0.43, "unit": "mg/kg"}, {"measurement": "Motor function, rotarod score", "setting": "rodent model of TBI [3]", "result": "much smaller decline in motor function"}, {"measurement": "Agonist activity, percentage of response to 100 nM [Sar9, Met(O2)11]-substance P", "setting": "NK1R", "result": "did not exhibit any detectable agonist activity; also recorded: no agonist activity"}, {"measurement": "IC50", "setting": "NK1R; 3 nM [Sar9, Met(O2)11]-SP, read-out: IC50, inhibition of [Sar9, Met(O2)11]-SP-mediated response", "result": 0.69, "unit": "nM"}]}]}
